Results on eight molecules are retold here after ChEMBL document CHEMBL1126320, “N,N'-disubstituted guanidine high-potency sweeteners” (J Med Chem, 1992).

The structures appear in SMILES notation.

A short description of assay [1]: Sweetness potency at 4% sucrose solution.
The nature of assay [2]: Sweetness potency at 2% sucrose solution.
Assay [3] in a line: Sweetness potency at 1 mg/mL sucrose solution; weakly bitter.

For `N/C(=N\C(c1ccccc1)c1ccccc1)NCC(=O)O`, in assay [1], the Sweetness potency amounted to 400.

Turning to `N/C(=N\C1CCCCCCC1)NCC(=O)O`, the Sweetness potency in assay [2] worked out at 200.

In turn, `C[C@H](/N=C(/NCC(=O)O)Nc1ccc(C#N)cc1)c1ccccc1` yielded a Sweetness potency in assay [2] of 28000.

In turn, `N#Cc1ccc(N/C(=N\CC(=O)O)NCC2CCCCC2)cc1` had a Sweetness potency in assay [2] of 35000.

On to `C[C@H](/N=C(\N)NCC(=O)O)c1ccccc1`, for which the Sweetness potency entry in assay [3] is “weakly bitter”.

As to `N#Cc1ccc(N/C(=N/CC(=O)O)NC2CCCCCCC2)cc1`, in assay [2], the Sweetness potency was 170000.

For the molecule `N/C(=N\CC(=O)O)NCC1CCCCC1`, the Sweetness potency result in assay [3] is “weakly bitter”.

Regarding `N#Cc1ccc(N/C(=N\CC(=O)O)NC(c2ccccc2)c2ccccc2)cc1`, in assay [2], the Sweetness potency stood at 200000.
